Reference: US8933075B2, “Compounds useful as antiviral agents, compositions, and methods of use” (priority 2010, dated 2015)

test system: A/Udorn/72 (H3N2) virus; test: Plaque assay in MDCK cells: EC50 by reduction of plaque number; format: cell-based, influenza virus; conditions: MDCK

`COc1cc(OC)cc(-c2cc(CCCCOC(=O)[C@]3(O)C[C@@H](O)[C@@H](O)[C@H](O)C3)c(/C=C3\SC(=S)N(C4CC5CCC4C5)C3=O)o2)c1` (stereo partly shown) [Compound 357] and `COc1cc(OC)cc(-c2cc(CCCOC(=O)[C@@H](N)c3ccccc3)c(/C=C3\SC(=S)N(C4CC5CCC4C5)C3=O)o2)c1` (stereo partly shown) [Compound 154] cannot be ordered by EC50: less than 100 nM for the first, less than 100 nM for the second.

`COc1cc(-c2ccc(/C=C3\SC(=S)N(C4C5CC6CC(C5)CC4C6)C3=O)o2)cc(OC)c1O` (stereo not shown) [Compound 7] and `COc1cc(-c2ccc(/C=C3\SC(=S)N(C4C5CC6CC(C5)CC4C6)C3=O)o2)cc(OC)c1OC` (stereo not shown) [Compound 1] cannot be ordered by EC50: less than 100 nM for the first, less than 100 nM for the second.

`COc1cc(O)cc(-c2cc(CCCNC(=O)[C@@H](N)CCCN=C(N)N)c(/C=C3\SC(=S)N(C4CC5CCC4C5)C3=O)o2)c1` (stereo partly shown) [Compound 175] and `COc1cccc(-c2cc(CCCCCO)c(/C=C3\SC(=S)N(C4CC5CCC4C5)C3=O)o2)c1` (stereo not shown) [Compound 348] cannot be ordered by EC50: less than 100 nM for the first, less than 100 nM for the second.

First: Cn1c(/C=C2\SC(=S)N(C3CC4CCC3C4)C2=O)cc(C#CCCCO)c1-c1ccc(Cl)cc1 (stereo not shown) [Compound 265]
Second: Cn1c(-c2ccc(Cl)cc2)cc(CCCO)c1/C=C1\SC(=S)N(C2CC3CCC2C3)C1=O (stereo not shown) [Compound 258]
The EC50 of the first is lower: less than 100 nM for the first, greater than 1000 nM for the second. The first is the more potent here.

`O=C1/C(=C/c2oc(-c3ccc(Cl)cc3)cc2CCCCO)SC(=S)N1C1CC2CCC1C2` (stereo not shown) [Compound 333] and `O=C1/C(=C/c2oc(-c3ccc(F)cc3)cc2CCCCO)SC(=S)N1C1CC2CCC1C2` (stereo not shown) [Compound 115] cannot be ordered by EC50: less than 100 nM for the first, less than 100 nM for the second.

`COc1ccc(-c2ccc(/C=C3\SC(=S)N(C4CC5CCC4C5)C3=O)o2)cc1OCC(=O)N[C@@H](CC(C)C)C(=O)O` (stereo partly shown) [Compound 78] and `COc1ccc(-c2ccc(/C=C3\SC(=S)N(C4CC5CCC4C5)C3=O)o2)cc1OCC(=O)N[C@@H](Cc1cnc[nH]1)C(=O)O` (stereo partly shown) [Compound 82] cannot be ordered by EC50: less than 100 nM for the first, less than 100 nM for the second.

`CCOC(=O)[C@@H]1CCCCN1C(=O)c1cc(-c2ccc(/C=C3\SC(=S)N(C4CC5CCC4C5)C3=O)o2)ccc1OC` (stereo partly shown) [Compound 91] and `COc1ccc(-c2ccc(/C=C3\SC(=S)N(C4CC5CCC4C5)C3=O)o2)cc1C(=O)N[C@@H](Cc1cnc[nH]1)C(=O)O` (stereo partly shown) [Compound 88] cannot be ordered by EC50: less than 100 nM for the first, less than 100 nM for the second.

`COc1cc(C)c(-c2ccc(/C=C3\SC(=S)N(C4CCCC4)C3=O)o2)cc1C` [Compound 51] and `CCOC(=O)c1c(F)ccc(-c2ccc(/C=C3\SC(=S)N(C4CCCC4)C3=O)o2)c1F` [Compound 45] cannot be ordered by EC50: less than 100 nM for the first, less than 100 nM for the second.

`O=C1/C(=C/c2sc(-c3cccc(Cl)c3)cc2C#CCCCO)SC(=S)N1C1CC2CCC1C2` (stereo not shown) [Compound 286] and `O=C1/C(=C/c2sc(-c3ccc(Cl)cc3)cc2CCCO)SC(=S)N1C1CC2CCC1C2` (stereo not shown) [Compound 276] cannot be ordered by EC50: less than 100 nM for the first, less than 100 nM for the second.

`CC(C)(C)N1C(=O)C[C@@H](C(=O)OCCCCCc2cc(-c3ccc(Cl)cc3)[nH]c2/C=C2\SC(=S)N(C3C4CC5CC(C4)CC3C5)C2=O)NC1=O` (stereo partly shown) [Compound 251] and `CC(C)(C)OC(=O)N[C@@H](CC(N)=O)C(=O)OCCCCCc1cc(-c2ccc(Cl)cc2)sc1/C=C1\SC(=S)N(C2C3CC4CC(C3)CC2C4)C1=O` (stereo partly shown) [Compound 308] cannot be ordered by EC50: less than 100 nM for the first, less than 100 nM for the second.

`COc1ccc(-c2cc(CCCCCO)c(/C=C3\SC(=S)N(C4C5CC6CC(C5)CC4C6)C3=O)o2)cc1` (stereo not shown) [Compound 342] and `O=C1/C(=C/c2oc(-c3ccc(OC(F)(F)F)cc3)cc2CCCCCO)SC(=S)N1C1C2CC3CC(C2)CC1C3` (stereo not shown) [Compound 339] cannot be ordered by EC50: less than 100 nM for the first, less than 100 nM for the second.

First: COc1ccc(-c2ccc(/C=C3\SC(=S)N(C4CC5CCC4C5)C3=O)o2)cc1OCC(=O)N[C@@H](Cc1ccc(O)cc1)C(=O)O (stereo partly shown) [Compound 77]
Second: COc1ccc(-c2ccc(/C=C3\SC(=S)N(C4CC5CCC4C5)C3=O)o2)cc1OCC(=O)N[C@@H](CCC(=O)OCc1ccccc1)C(=O)O (stereo partly shown) [Compound 81]
The EC50 of the first is higher: 100 to 250 nM for the first, less than 100 nM for the second. The second is the more potent here.

`COc1cc(OC)cc(-c2cc(CCCOC(=O)[C@H](CCCNC(=O)OC(C)(C)C)NC(=O)OC(C)(C)C)c(/C=C3\SC(=S)N(C4CC5CCC4C5)C3=O)o2)c1` (stereo partly shown) [Compound 139] and `CC(C)(C)OC(=O)N[C@@H](CC(N)=O)C(=O)OCCCc1cc(-c2ccc(Cl)cc2)oc1/C=C1\SC(=S)N(C2CC3CCC2C3)C1=O` (stereo partly shown) [Compound 148] cannot be ordered by EC50: less than 100 nM for the first, less than 100 nM for the second.

`O=C1/C(=C/c2oc(-c3ccccc3)cc2CO)SC(=S)N1C1CC2CCC1C2` (stereo not shown) [Compound 93] and `O=C1/C(=C/c2oc(-c3ccc(F)cc3)cc2CCCCCO)SC(=S)N1C1CC2CCC1C2` (stereo not shown) [Compound 105] cannot be ordered by EC50: less than 100 nM for the first, less than 100 nM for the second.

`O=C1/C(=C/c2c[nH]c3ccccc23)SC(=S)N1C1C2CC3CC(C2)CC1C3` (stereo not shown) [Compound 215, 3-adamantan-2-yl-5-(1H-indol-3-ylmethylene)-2-thioxo-thiazolidin-4-one] and `O=C1/C(=C/c2cc3ccccc3o2)SC(=S)N1C1C2CC3CC(C2)CC1C3` (stereo not shown) [Compound 218, 3-adamantan-2-yl-5-benzofuran-2-ylmethylene-2-thioxo-thiazolidin-4-one] cannot be ordered by EC50: less than 100 nM for the first, less than 100 nM for the second.

`O=C1/C(=C/c2oc(-c3ccc(F)cc3)cc2CCCCO)SC(=S)N1C1C2CC3CC(C2)CC1C3` (stereo not shown) [Compound 116] and `COc1ccc(-c2cc(CCCCCO)c(/C=C3\SC(=S)N(C4CC5CCC4C5)C3=O)o2)cc1` (stereo not shown) [Compound 341] cannot be ordered by EC50: less than 100 nM for the first, less than 100 nM for the second.

`O=C1/C(=C/c2ccc(-c3ccc(Cl)cc3)o2)SC(=S)N1C1C2CC3CC(C2)CC1C3` (stereo not shown) [Compound 43] and `Nc1ccc(-c2ccc(/C=C3\SC(=S)N(C4CC5CCC4C5)C3=O)o2)cc1` (stereo not shown) [Compound 11] cannot be ordered by EC50: less than 100 nM for the first, less than 100 nM for the second.

`COC(=O)[C@@H](O)[C@H](O)C(=O)OCCCc1cc(-c2ccc(F)cc2)oc1/C=C1\SC(=S)N(C2CC3CCC2C3)C1=O` (stereo partly shown) [Compound 177] and `Cn1c(-c2ccc(Cl)cc2)cc(CCCCCO)c1/C=C1\SC(=S)N(C2CC3CCC2C3)C1=O` (stereo not shown) [Compound 260] cannot be ordered by EC50: less than 100 nM for the first, less than 100 nM for the second.

`COc1cc(OCC(=O)OC(C)(C)C)cc(-c2ccc(/C=C3\SC(=S)N(C4CC5CCC4C5)C3=O)o2)c1` (stereo not shown) [Compound 39] and `COCOc1cc(-c2ccc(/C=C3\SC(=S)N(C4CC5CCC4C5)C3=O)o2)cc(OC)c1OCOC` (stereo not shown) [Compound 26] cannot be ordered by EC50: less than 100 nM for the first, less than 100 nM for the second.

Compared with `COc1ccc2c(O)c(-c3ccc(/C=C4\SC(=S)N(C5CC6CCC5C6)C4=O)o3)c(=O)oc2c1` (stereo not shown) [Compound 73], `COc1cc(COc2ccc3oc(=O)c(-c4ccc(/C=C5\SC(=S)N(C6CC7CCC6C7)C5=O)o4)c(O)c3c2)cc(OC)c1` (stereo not shown) [Compound 326] is lower in EC50: 100 to 250 nM for the first, less than 100 nM for the second.

`O=C1/C(=C/c2cc(CCCO)c(-c3ccc(Cl)cc3)n2Cc2ccccc2)SC(=S)N1C1C2CC3CC(C2)CC1C3` (stereo not shown) [Compound 257] and `COCOc1cc(-c2ccc(/C=C3\SC(=S)N(C4C5CC6CC(C5)CC4C6)C3=O)o2)cc(OC)c1OC` (stereo not shown) [Compound 25] cannot be ordered by EC50: less than 100 nM for the first, less than 100 nM for the second.

`COc1cccc(-c2cc(C#CCCCOC(=O)[C@H](CC(N)=O)NC(=O)OC(C)(C)C)c(/C=C3\SC(=S)N(C4CC5CCC4C5)C3=O)s2)c1` (stereo partly shown) [Compound 314] and `COc1cccc(-c2c(C#CCCCOC(=O)[C@H](CC(N)=O)NC(=O)OC(C)(C)C)cc(/C=C3\SC(=S)N(C4C5CC6CC(C5)CC4C6)C3=O)n2C)c1` (stereo partly shown) [Compound 270] cannot be ordered by EC50: less than 100 nM for the first, less than 100 nM for the second.

`COc1cccc(-c2cc(CCCCCOC(=O)[C@H](CC(N)=O)NC(=O)OC(C)(C)C)c(/C=C3\SC(=S)N(C4C5CC6CC(C5)CC4C6)C3=O)s2)c1` (stereo partly shown) [Compound 310] and `COc1cc(OC)cc(-c2cc(CCCN3CCOCC3)c(/C=C3\SC(=S)N(C4CC5CCC4C5)C3=O)o2)c1` (stereo not shown) [Compound 181] cannot be ordered by EC50: less than 100 nM for the first, less than 100 nM for the second.
